This passage reports IC50 results from patent US11420973B2, “Amide substituted indole compounds useful as TLR inhibitors” (BRISTOL-MYERS SQUIBB COMPANY, priority 2017, dated 2022).

As a reminder, the IC50 is the midpoint of a concentration-inhibition curve.

The target in one experiment is human TLR9 (Homo sapiens (Human), UniProt Q9NR96). The experiment in a line: TLR9 inhibition reporter assay (HEK-Blue SEAP reporter, ODN2006 stimulation).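 Further: SEAP reporter under IFN-β minimal promoter with five NF-κB and AP-1 sites, 22 h incubation, compounds 0.05 nM–50 µM, inhibition relative to agonist plus DMSO versus known inhibitor.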 The conditions noted are these: read-out: TLR9 IC50; HEK-Blue cells overexpressing human TLR9, ODN2006 5 nM, SEAP reporter.
Sequence of human TLR9 (Q9NR96 26-1032): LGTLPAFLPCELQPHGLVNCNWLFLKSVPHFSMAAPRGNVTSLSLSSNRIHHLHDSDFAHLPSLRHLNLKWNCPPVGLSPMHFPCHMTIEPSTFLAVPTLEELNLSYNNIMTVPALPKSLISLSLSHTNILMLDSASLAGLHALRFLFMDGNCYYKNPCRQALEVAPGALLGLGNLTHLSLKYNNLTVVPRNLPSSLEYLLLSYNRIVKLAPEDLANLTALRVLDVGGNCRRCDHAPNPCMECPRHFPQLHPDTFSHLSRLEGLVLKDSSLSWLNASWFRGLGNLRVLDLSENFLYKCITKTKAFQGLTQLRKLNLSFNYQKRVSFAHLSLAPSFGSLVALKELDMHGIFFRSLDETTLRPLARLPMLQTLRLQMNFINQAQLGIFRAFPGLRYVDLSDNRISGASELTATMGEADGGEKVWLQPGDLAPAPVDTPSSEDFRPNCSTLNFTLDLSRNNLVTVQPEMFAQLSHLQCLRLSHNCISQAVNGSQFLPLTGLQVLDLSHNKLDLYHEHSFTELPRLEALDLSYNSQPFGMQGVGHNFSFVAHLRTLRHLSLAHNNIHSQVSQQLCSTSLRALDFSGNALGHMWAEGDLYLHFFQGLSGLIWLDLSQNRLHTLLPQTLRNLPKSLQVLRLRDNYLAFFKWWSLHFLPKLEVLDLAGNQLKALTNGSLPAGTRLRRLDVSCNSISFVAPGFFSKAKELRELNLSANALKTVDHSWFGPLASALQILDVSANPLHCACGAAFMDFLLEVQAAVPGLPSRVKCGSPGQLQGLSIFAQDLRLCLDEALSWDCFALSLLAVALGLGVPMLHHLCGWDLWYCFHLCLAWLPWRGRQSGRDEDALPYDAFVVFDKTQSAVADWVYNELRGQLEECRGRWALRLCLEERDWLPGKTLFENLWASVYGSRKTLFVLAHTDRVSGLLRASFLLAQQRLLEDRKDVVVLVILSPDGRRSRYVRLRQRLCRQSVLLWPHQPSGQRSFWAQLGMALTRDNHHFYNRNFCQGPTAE
The target of the next experiment is human TLR8 (Homo sapiens (Human), UniProt Q9NR97). The experiment in a line: TLR8 inhibition reporter assay (HEK-Blue SEAP reporter, R848 stimulation).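 Further: SEAP driven by IFN-β minimal promoter with NF-κB and AP-1 sites, 22 h incubation, compounds 0.05 nM–50 µM, inhibition scaled between agonist plus DMSO and reference inhibitor wells.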 Conditions: read-out: TLR8 IC50; HEK-Blue cells overexpressing human TLR8, R848 15.9 μM, SEAP reporter. (In general: In a reporter assay the amount or activity of a reporter protein is the signal.)
Sequence of human TLR8 (Q9NR97 27-1041): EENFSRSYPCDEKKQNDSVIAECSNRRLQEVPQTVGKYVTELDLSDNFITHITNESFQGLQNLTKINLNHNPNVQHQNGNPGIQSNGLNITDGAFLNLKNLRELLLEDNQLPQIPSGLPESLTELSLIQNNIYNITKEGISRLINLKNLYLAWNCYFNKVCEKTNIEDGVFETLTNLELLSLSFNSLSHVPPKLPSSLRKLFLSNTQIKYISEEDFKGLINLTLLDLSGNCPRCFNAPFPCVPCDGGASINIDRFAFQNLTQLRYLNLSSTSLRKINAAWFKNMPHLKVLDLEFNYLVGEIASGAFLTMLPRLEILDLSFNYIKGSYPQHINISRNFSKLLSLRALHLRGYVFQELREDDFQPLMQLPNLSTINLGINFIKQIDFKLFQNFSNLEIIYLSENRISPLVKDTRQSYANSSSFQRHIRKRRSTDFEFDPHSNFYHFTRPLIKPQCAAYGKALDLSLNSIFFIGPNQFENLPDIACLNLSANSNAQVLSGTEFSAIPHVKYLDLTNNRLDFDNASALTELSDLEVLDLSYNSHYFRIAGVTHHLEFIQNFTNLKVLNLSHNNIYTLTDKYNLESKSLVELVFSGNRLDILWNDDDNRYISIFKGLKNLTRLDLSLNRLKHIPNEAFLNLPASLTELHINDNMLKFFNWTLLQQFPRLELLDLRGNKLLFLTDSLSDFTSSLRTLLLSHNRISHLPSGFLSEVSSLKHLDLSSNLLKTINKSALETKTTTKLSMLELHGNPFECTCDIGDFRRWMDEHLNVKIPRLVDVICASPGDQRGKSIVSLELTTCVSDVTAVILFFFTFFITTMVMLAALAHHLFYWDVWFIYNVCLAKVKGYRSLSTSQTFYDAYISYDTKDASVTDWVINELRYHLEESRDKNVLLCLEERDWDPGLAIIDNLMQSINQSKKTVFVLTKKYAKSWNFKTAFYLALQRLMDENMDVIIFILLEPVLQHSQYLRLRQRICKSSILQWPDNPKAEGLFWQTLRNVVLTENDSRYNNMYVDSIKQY
A further experiment addresses human TLR7 (Homo sapiens (Human), UniProt Q9NYK1). The experiment can be described thus: TLR7 inhibition reporter assay (HEK-Blue SEAP reporter, gardiquimod stimulation). The format is cell-based. The conditions noted are these: HEK-Blue cells overexpressing human TLR7, gardiquimod 7.5 μM.

Sequence of human TLR7 (Q9NYK1 27-1049): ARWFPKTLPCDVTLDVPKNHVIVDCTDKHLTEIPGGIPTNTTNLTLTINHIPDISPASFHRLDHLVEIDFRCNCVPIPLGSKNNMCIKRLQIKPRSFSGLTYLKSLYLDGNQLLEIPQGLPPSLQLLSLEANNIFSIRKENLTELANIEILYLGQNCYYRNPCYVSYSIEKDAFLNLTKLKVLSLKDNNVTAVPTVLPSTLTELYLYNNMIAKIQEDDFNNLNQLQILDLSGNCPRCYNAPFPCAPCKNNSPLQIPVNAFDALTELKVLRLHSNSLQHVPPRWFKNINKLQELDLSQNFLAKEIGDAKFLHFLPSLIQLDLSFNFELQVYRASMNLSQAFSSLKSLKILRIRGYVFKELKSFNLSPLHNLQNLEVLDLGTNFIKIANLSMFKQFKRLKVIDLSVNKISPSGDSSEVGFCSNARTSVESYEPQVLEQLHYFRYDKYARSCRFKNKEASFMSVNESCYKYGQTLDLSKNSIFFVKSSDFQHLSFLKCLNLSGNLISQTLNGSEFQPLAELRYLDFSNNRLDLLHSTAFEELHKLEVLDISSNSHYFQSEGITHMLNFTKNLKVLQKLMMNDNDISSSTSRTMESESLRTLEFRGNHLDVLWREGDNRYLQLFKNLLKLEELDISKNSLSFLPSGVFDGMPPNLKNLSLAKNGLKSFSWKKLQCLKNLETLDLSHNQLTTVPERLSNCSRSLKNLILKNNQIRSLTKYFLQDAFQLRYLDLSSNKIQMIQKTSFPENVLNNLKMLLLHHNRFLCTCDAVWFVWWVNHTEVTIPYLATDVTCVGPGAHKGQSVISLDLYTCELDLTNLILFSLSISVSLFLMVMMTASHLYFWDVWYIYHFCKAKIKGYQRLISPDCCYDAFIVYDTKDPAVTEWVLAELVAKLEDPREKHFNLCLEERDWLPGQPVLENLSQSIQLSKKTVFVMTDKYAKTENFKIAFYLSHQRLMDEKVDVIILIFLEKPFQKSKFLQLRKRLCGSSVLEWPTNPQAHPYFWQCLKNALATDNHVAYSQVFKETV

As to `CCN(CC)C(=O)C1CCCN(CC(=O)N2CC3CN(C(=O)c4ccc5[nH]c(-c6ccc(OC)c(OC)c6)c(C(C)C)c5c4)CC3C2)C1` (racemic) [Example 8, 1-(2-{5-[2-(3,4-dimethoxyphenyl)-3-(propan-2-yl)-1H-indole-5-carbonyl]-octahydropyrrolo[3,4-c]pyrrol-2-yl}-2-oxoethyl)-N,N-diethylpiperidine-3-carboxamide], the results for the half-maximal inhibitory concentration (IC50) at human TLR9, at human TLR8 and on human TLR7 were 7520 nM, 126 nM and 129 nM, respectively.
Turning to `CCN(CC)C(=O)C1CCCN(CC(=O)N2CC3CN(C(=O)c4ccc5[nH]c(-c6ccc(OC)c(OC)c6)c(C(C)C)c5c4)CC3C2)C1` (single isomer, unassigned) [Example 10, 1-(2-{5-[2-(3,4-dimethoxyphenyl)-3-(propan-2-yl)-1H-indole-5-carbonyl]-octahydropyrrolo[3,4-c]pyrrol-2-yl}-2-oxoethyl)-N,N-diethylpiperidine-3-carboxamide], the figures for the IC50 on human TLR9, on human TLR8 and at human TLR7 were 7630 nM, 114 nM and 111 nM, respectively.
For `CCN(CC)C(=O)C1CCCN(CC(=O)N2CC3CN(C(=O)c4ccc5[nH]c(-c6ccc(OC)c(OC)c6)c(C(C)C)c5c4)CC3C2)C1` (single isomer, unassigned) [Example 11, 1-(2-{5-[2-(3,4-dimethoxyphenyl)-3-(propan-2-yl)-1H-indole-5-carbonyl]-octahydropyrrolo[3,4-c]pyrrol-2-yl}-2-oxoethyl)-N,N-diethylpiperidine-3-carboxamide], the figures for the IC50 on human TLR9, at human TLR8 and at human TLR7 were 36000 nM, 645 nM and 606 nM, respectively.
Take `COc1ccc(-c2[nH]c3ccc(C(=O)N4CC5CNCC5C4)cc3c2C(C)C)cc1OC` (centres unmarked) [Example 1, 2-(3,4-dimethoxyphenyl)-5-{octahydropyrrolo[3,4-c]pyrrole-2-carbonyl}-3-(propan-2-yl)-1H-indole]: the 50% inhibitory concentration (IC50) on human TLR9 was 375 nM; on human TLR8 it was 49 nM; against human TLR7 it was 30 nM.
Turning to `COc1ccc(-c2[nH]c3ccc(C(=O)N4CCCN(C)CC4)cc3c2C(C)C)cc1OC` [Example 2, (2-(3,4-dimethoxyphenyl)-3-isopropyl-1H-indol-5-yl)(4-methyl-1,4-diazepan-1-yl)methanone], the values for the IC50 on human TLR9, on human TLR8 and at human TLR7 were 3010 nM, 4 nM and 45 nM, respectively.
The matching figures for `COc1ccc(-c2[nH]c3ccc(C(=O)N(C)C)cc3c2C(C)C)cc1OC` [Example 3, 2-(3,4-dimethoxyphenyl)-3-isopropyl-N,N-dimethyl-1H-indole-5-carboxamide]: more than 50000 nM, 79 nM and 153 nM.
As to `CNC(=O)c1ccc2[nH]c(-c3ccc(OC)c(OC)c3)c(C(C)C)c2c1` [Example 4, 2-(3,4-dimethoxyphenyl)-3-isopropyl-N-methyl-1H-indole-5-carboxamide], the results for the IC50 on human TLR9, on human TLR8 and against human TLR7 were 30500 nM, 27 nM and 145 nM, respectively.
For the compound `CCc1c(-c2ccc(OC)c(OC)c2)[nH]c2ccc(C(=O)NC3CCC(N(C)C)CC3)cc12` (centres unmarked) [Example 19, 2-(3,4-dimethoxyphenyl)-N-(4-(dimethylamino)cyclohexyl)-3-ethyl-1H-indole-5-carboxamide], the IC50 worked out at 1390 nM at human TLR9 and 104 nM against human TLR7.
As to `CCc1c(-c2ccc(OC)c(OC)c2)[nH]c2ccc(C(=O)N3CCC(N(C)C)CC3)cc12` [Example 31, (2-(3,4-dimethoxyphenyl)-3-ethyl-1H-indol-5-yl)(4-(dimethylamino)piperidin-1-yl)methanone], the results for the concentration for half-maximal inhibition (IC50) at human TLR9 and against human TLR7 were 4930 nM and 296 nM, respectively.
With `CCc1c(-c2ccc(OC)c(OC)c2)[nH]c2ccc(C(=O)N3CCN(C4CCN(C)CC4)CC3)cc12` [Example 36, (2-(3,4-dimethoxyphenyl)-3-ethyl-1H-indol-5-yl)(4-(1-methylpiperidin-4-yl)piperazin-1-yl)methanone], the values for the 50% inhibitory concentration (IC50) at human TLR9 and at human TLR7 were 1930 nM and 138 nM, respectively.
As to `CCc1c(-c2ccc(OC)c(OC)c2)[nH]c2ccc(C(=O)N[C@H]3CC[C@H](N)CC3)cc12` [Example 47, N-((1r,4r)-4-aminocyclohexyl)-2-(3,4-dimethoxyphenyl)-3-ethyl-1H-indole-5-carboxamide], the half-inhibitory concentration (IC50) on human TLR9 worked out at 2790 nM; against human TLR7, 150 nM.
`CCc1c(-c2ccc(OC)c(OC)c2)[nH]c2ccc(C(=O)NCCN3CCCCC3)cc12` [Example 49, 2-(3,4-dimethoxyphenyl)-3-ethyl-N-(2-(piperidin-1-yl)ethyl)-1H-indole-5-carboxamide]: the values for the IC50 at human TLR9 and on human TLR7 were 2410 nM and 144 nM, respectively.
For `CCc1c(-c2ccc(OC)c(OC)c2)[nH]c2ccc(C(=O)NCCc3ccncc3)cc12` [Example 50, 2-(3,4-dimethoxyphenyl)-3-ethyl-N-(2-(pyridin-4-yl)ethyl)-1H-indole-5-carboxamide], the IC50 at human TLR9 was 19900 nM; against human TLR7, 382 nM.
In the same order, the values of `CCc1c(-c2ccc(OC)c(OC)c2)[nH]c2ccc(C(=O)NCCc3cccnc3)cc12` [Example 51, 2-(3,4-dimethoxyphenyl)-3-ethyl-N-(2-(pyridin-3-yl)ethyl)-1H-indole-5-carboxamide] are more than 50000 nM and 705 nM.
Consider `CCc1c(-c2ccc(OC)c(OC)c2)[nH]c2ccc(C(=O)N3CCN(c4cnccn4)CC3)cc12` [Example 58, (2-(3,4-dimethoxyphenyl)-3-ethyl-1H-indol-5-yl)(4-(pyrazin-2-yl)piperazin-1-yl)methanone], for which the concentration for half-maximal inhibition (IC50) amounted to 110 nM on human TLR8 and 194 nM at human TLR7.
Turning to `CCc1c(-c2ccc(OC)c(OC)c2)[nH]c2ccc(C(=O)N3CCN(c4ccccn4)CC3)cc12` [Example 59, (2-(3,4-dimethoxyphenyl)-3-ethyl-1H-indol-5-yl)(4-(pyridin-2-yl)piperazin-1-yl)methanone], the IC50 on human TLR9 was more than 50000 nM; against human TLR7 it was 1140 nM.
On to `Cc1cc(-c2[nH]c3ccc(C(C)C(=O)NCCC(C)(C)O)cc3c2C(C)C)ccn1` (centres unmarked) [Example 132, N-(3-hydroxy-3-methylbutyl)-2-(3-isopropyl-2-(2-methylpyridin-4-yl)-1H-indol-5-yl)propanamide], for which the figures for the IC50 at human TLR8 and against human TLR7 were 964 nM and 947 nM, respectively.
The matching figures for `Cc1cc(-c2[nH]c3ccc(C(C)(C)C(=O)N4CCCC(CCN)C4)cc3c2C(C)C)ccn1` (centres unmarked) [Example 154, 1-(3-(2-aminoethyl)piperidin-1-yl)-2-(3-isopropyl-2-(2-methylpyridin-4-yl)-1H-indol-5-yl)-2-methylpropan-1-one]: 256 nM and 58 nM.
For `Cc1c(-c2[nH]c3ccc(C(=O)N4CCN(C)CC4)cc3c2C(C)C)cn(C)c(=O)c1Cl` [Example 220, 3-chloro-5-(3-isopropyl-5-(4-methylpiperazine-1-carbonyl)-1H-indol-2-yl)-1,4-dimethylpyridin-2(1H)-one], the values for the IC50 at human TLR8 and on human TLR7 were 2.1 nM and 141 nM, respectively.
On to `CCCN1CCC(N(C(=O)c2ccc3[nH]c(-c4cn(C)c(=O)c(Cl)c4C)c(C(C)C)c3c2)C2CC2)CC1` [Example 221, 2-(5-chloro-1,4-dimethyl-6-oxo-1,6-dihydropyridin-3-yl)-N-cyclopropyl-3-isopropyl-N-(1-propylpiperidin-4-yl)-1H-indole-5-carboxamide], for which the IC50 on human TLR9 came to 2940 nM; at human TLR8, 0.7 nM.
